Reference: patent publication US8986995B2, “Methods of deriving differentiated cells from stem cells” (International Stem Cell Corporation, priority 2008, dated 2015)
Entries after “also recorded” stand apart in the source; their conditions may differ.

Columns and labels:
hpSC line 2 p = assay: Flow cytometry for CXCR4-positive definitive endoderm cells after differentiation, line 2 p; type: cell-based, human; settings: TSA pretreatment
Description: (§1) Cell culture. Undifferentiated hpSC and hESC were maintained on mouse embryo fibroblast feeder layers in KnockOut DMEM/F12 (Invitrogen) supplemented with 15% KnockOut serum replacement (Invitrogen), 0.05 mM nonessential amino acids (NEAA) (Invitrogen), 2 mM Glutamax-I (Invitrogen), penicillin/streptomycin (Invitrogen), 55 μM 2-mercapthoethonol (Invitrogen), 5 ng/ml recombinant human FGF-basic (PeproTech) and 20 ng/ml recombinant human activin A (R&D Systems); for TSA-pretreatment culture medium was supplemented with 100 nM TSA (Sigma) for 24 hours. Cultures were manually passaged at 1:4-1:6 split ratio every 5-7 days. Differentiation was carried out in RPMI 1640 (Invitrogen) supplemented with Glutamax-I, penicillin/streptomycin, 0.5 mg/ml human serum albumin (Sigma), 100 ng/ml recombinant human Activin A, 75 ng/ml recombinant mouse Wnt3a (R&D Systems) for the first 24 hours only. For subsequent days of differentiation media was RPMI 1640 supplemented with 0.2% human AB serum (Fisher BioReagents) and 100 ng/ml recombinant human Activin A. Before initiating differentiation, stem cells were given a brief wash in DPBS (HyClone). […]
(§2) Flow cytometry. […] Flow cytometry data were acquired on a Beckton Dickinson FACS Caliber and analyzed using FACSDiva software (BD Bioscience).

hpSC line 6 p = assay: Flow cytometry for CXCR4-positive definitive endoderm cells after differentiation, line 6 p; type: cell-based, human; settings: TSA pretreatment
Description: as §1, §2

hpSC line 8 p = assay: Flow cytometry for CXCR4-positive definitive endoderm cells after differentiation, line 8 p; type: cell-based, human; settings: TSA pretreatment
Description: as §1, §2

hpSC line 15 ph = assay: Flow cytometry for CXCR4-positive definitive endoderm cells after differentiation, line 15 ph; type: cell-based, human; settings: TSA pretreatment
Description: as §1, §2

[1] = tested on: human parthenogenetic stem cells (hpSC); assay: Flow cytometry for CXCR4-positive cells, hpSC differentiation to definitive endoderm; type: cell-based; settings: all 4 hpSC lines, CXCR4-positive cells by flow cytometry
Description: as §1
Flow cytometry. […] Flow cytometry data were acquired on a Beckton Dickinson FACS Caliber and analyzed using FACSDiva software (BD Bioscience). […]

[2] = tested on: human parthenogenetic stem cells (hpSC); assay: SOX17 immunostaining of differentiated hpSC; type: cell-based
Description: (§3) Cell culture. Undifferentiated hpSC and hESC were maintained on mouse embryo fibroblast feeder layers in KnockOut DMEM/F12 (Invitrogen) supplemented with 15% KnockOut serum replacement (Invitrogen), 0.05 mM nonessential amino acids (NEAA) (Invitrogen), 2 mM Glutamax-I (Invitrogen), penicillin/streptomycin (Invitrogen), 55 μM 2-mercapthoethonol (Invitrogen), 5 ng/ml recombinant human FGF-basic (PeproTech) and 20 ng/ml recombinant human activin A (R&D Systems); for TSA-pretreatment culture medium was supplemented with 100 nM TSA (Sigma) for 24 hours. Cultures were manually passaged at 1:4-1:6 split ratio every 5-7 days. Differentiation was carried out in RPMI 1640 (Invitrogen) supplemented with Glutamax-I, penicillin/streptomycin, 0.5 mg/ml human serum albumin (Sigma), 100 ng/ml recombinant human Activin A, 75 ng/ml recombinant mouse Wnt3a (R&D Systems) for the first 24 hours only. For subsequent days of differentiation media was RPMI 1640 supplemented with 0.2% human AB serum (Fisher BioReagents) and 100 ng/ml recombinant human Activin A. Before initiating differentiation, stem cells were given a brief wash in DPBS (HyClone). […] The protocol is divided into two stages: TSA-pretreatment stage (orange color) and DE differentiation stage (green color). […]

[3] = tested on: human parthenogenetic stem cells (hpSC); assay: Real-time quantitative PCR of marker gene expression in hpSC; type: cell-based
Description: Cell culture. Undifferentiated hpSC and hESC were maintained on mouse embryo fibroblast feeder layers in KnockOut DMEM/F12 (Invitrogen) supplemented with 15% KnockOut serum replacement (Invitrogen), 0.05 mM nonessential amino acids (NEAA) (Invitrogen), 2 mM Glutamax-I (Invitrogen), penicillin/streptomycin (Invitrogen), 55 μM 2-mercapthoethonol (Invitrogen), 5 ng/ml recombinant human FGF-basic (PeproTech) and 20 ng/ml recombinant human activin A (R&D Systems); for TSA-pretreatment culture medium was supplemented with 100 nM TSA (Sigma) for 24 hours. Cultures were manually passaged at 1:4-1:6 split ratio every 5-7 days. Differentiation was carried out in RPMI 1640 (Invitrogen) supplemented with Glutamax-I, penicillin/streptomycin, 0.5 mg/ml human serum albumin (Sigma), 100 ng/ml recombinant human Activin A, 75 ng/ml recombinant mouse Wnt3a (R&D Systems) for the first 24 hours only. For subsequent days of differentiation media was RPMI 1640 supplemented with 0.2% human AB serum (Fisher BioReagents) and 100 ng/ml recombinant human Activin A. Before initiating differentiation, stem cells were given a brief wash in DPBS (HyClone). […] The protocol is divided into two stages: TSA-pretreatment stage (orange color) and DE differentiation stage (green color). TSA-pretreatment is performed against background of the culture conditions that support pluripotency state of the hpSC at time interval from “−24” hours till “0” hours. Differentiation starts from time point “0” hours by applying Activin A- and Wnt3a-signaling and withholding TSA from culture medium. Several markers characteristics of each cell population are listed.
Real-time quantitative PCR. Sample collection, reverse transcription and real-time PCR reactions were as previously described (D'Amour et al, Nat. Biotechnol 23:1534-41, 2005).

undifferentiated hpSC = assay: Cell death and morphology of undifferentiated hpSC under pretreatment; type: cell-based, human; settings: TSA pretreatment of undifferentiated hpSC
Description: as §3

[4] = tested on: LLC-6p parthenogenetic stem cell line; assay: Immunostaining of definitive endoderm markers, Example 1 protocol; type: cell-based, human; settings: 100 μM TSA pretreatment, then D1, D2, D3 media
Description: These endoderm-like cells were derived according a protocol of various culture media (D1-Activin A+Wnt3a; D2-Activin A; D3—Activin A; see Tables 1-4, below). However, prior to culture, the parthenogenetic cells were exposed to a pretreatment agent (trichostatin A (TSA)).
Accordingly, a protocol for generating definitive endoderm cells is as follows: (i) addition of 100 μM trichostatin A (TSA) to culture medium (phSC culture medium+TSA) and culture cells for about 24 hours; (ii) cultivation of the cells in phSC culture medium+TSA for about 24 hours; (iii) remove TSA from the culture (i.e., cultivation of the cells in culture medium D1 for about 24 hours); (iv) cultivation of the cells in culture medium D2 for about 24 hours; and (v) cultivation of the cells in culture medium D3 for about 24 hours.

hpSC = assay: Proportion of DE derived from hpSC, HDAC inhibitor pretreatment versus simultaneous application with Activin A; type: cell-based, human; settings: for enhancement in the proportion of DE produced from hpSC: applied at the same time with Activin A
[5] = tested on: mouse embryonic stem cells; settings: cited from earlier work

SMILES | CXCR-4 (CD184) + [% "Intact" Cells] (hpSC line 2 p; 3 day of differentiation) | CXCR-4 (CD184) + [% "Intact" Cells] (hpSC line 2 p; 4 day of differentiation) | CXCR-4 (CD184) + [% "Intact" Cells] (hpSC line 6 p; 3 day of differentiation) | CXCR-4 (CD184) + [% "Intact" Cells] (hpSC line 6 p; 4 day of differentiation) | CXCR-4 (CD184) + [% "Intact" Cells] (hpSC line 8 p; 3 day of differentiation) | CXCR-4 (CD184) + [% "Intact" Cells] (hpSC line 8 p; 4 day of differentiation) | CXCR-4 (CD184) + [% "Intact" Cells] (hpSC line 15 ph; 3 day of differentiation) | CXCR-4 (CD184) + [% "Intact" Cells] (hpSC line 15 ph; 4 day of differentiation) | increase in number of definitive endoderm cells over non-pretreated cultures [1] | relative proportion of SOX17 immunoreactive cells ([2]; after differentiation during 72 hours, TSA-treated versus non treated hpSC cultures) | proportion of SOX17-positive cells ([2]; hpSC pretreated with TSA 24 hours, after 72 hours of differentiation) | brachyury gene expression during differentiation ([3]; TSA-pretreated versus non TSA pretreated cultures, 24 h and 48 h of differentiation) | brachyury expression after pretreatment ([3]; after 24 hours TSA pretreatment, before start of differentiation (0h)) | expression of pluripotency genes OCT4 and SOX2 and DE genes CER1, SOX17, CXCR4 ([3]; after TSA pretreatment, before start of differentiation (0h)) | cell death and cell morphology (undifferentiated hpSC) | FoxA2 expression by immunostaining [4] | Sox17 expression by immunostaining [4] | enhancement in the proportion of DE produced from hpSC (hpSC) | effect on pluripotency factors including Nanog [5] | proportion of DE derived from hpSC (hpSC; pretreatment of hpSC before Activin A)
CC(/C=C/C(=O)NO)=C\[C@@H](C)C(=O)c1ccc(N(C)C)cc1 [TSA, trichostatin A] | 61.0% | 58.9% | 61.2% | 67.6% | 67.1% | 76.7% | 24.1% | 34.2% | 1.4-1.8 fold | most numerous | greater than 70% | higher peak level of brachyury gene expression at 24 h and sharper kinetic of reduced expression at 48 h; also recorded: significantly higher levels of brachyury transcripts | slight upregulation of brachyury expression | no significant changes | some cell death as well as changes in cell morphology | overwhelming majority of cells expressed FoxA2 | majority of cells expressed Sox17 | did not produce any enhancement | suppression of important pluripotency factors | –
CCCC(=O)[O-].[Na+] [NaB, sodium butyrate] | – | – | – | – | – | – | – | – | – | – | – | – | – | – | – | – | – | did not produce any enhancement | – | increased the proportion of DE
